We go through one compound from publication PMC11678425, “(-)-Syringaresinol Exerts an Antidepressant-like Activity in Mice by Noncompetitive Inhibition of the Serotonin Transporter” (Pharmaceuticals, 2024).

The IC50 is the midpoint of a concentration-inhibition curve.

For assay [1], the system named is hSERT S1 mutants (Y95F, I172F, S438T). As to the kind of experiment: APP^+ uptake, S1 site mutants compared with WT. The format is cell-based, human. The method, then: HeLa cells were cultured in Dulbecco’s Modified Eagle’s Medium supplemented with 10% fetal bovine serum, 100 units/mL penicillin, and 100 μg/mL streptomycin at 37 °C in a humidified 5% CO2 incubator. Cells grown at ~70% confluence in a 6 cm culture dish were transfected with hSERT cDNA in pcDNA3.1 by lipofectamine 2000. Transfected cells were incubated for 12 h at 37 °C with 5% CO2 and then transferred into 96-well plates. After being grown for an additional 12–16 h, the cells were then assayed for APP^+ uptake or ASP^+ binding.
Measurement of transport or ligand binding activity of SERT was performed by using its fluorescent substrate (APP^+) or ligand (ASP^+), respectively. The cells transiently expressing WT or mutants of hSERT were applied for various treatments. Briefly, the cells were washed twice with 100 μL KRH buffer containing 20 mM HEPES (Neofroxx, Einhausen, Germany), pH 7.4, 120 mM NaCl, 1.3 mM KCl, 2.2 mM CaCl2, 1.2 mM MgSO4, and 0.1% (w/v) glucose. APP^+ uptake was measured by adding 100 μL KRH buffer containing 2 μM APP^+ and incubating for 5 min at 22 °C. Excess APP^+ was then removed by 3× rapid washing with 100 μL KRH buffer each time. The extent of APP^+ accumulated in the cells was determined by fluorescence spectrometry with an Infinite 200 Pro microplate reader (Tecan, Männedorf, Switzerland). […]

Assay [2] concerns the target T1, hSERT E493N (Homo sapiens, UniProt P31645, E493N).
T1 construct: forward and reverse primers were used to amplify a full-length hSERT; expressed in transfected cells; host or cells: HeLa cells, transient, pcDNA3.1
Nature of the assay: ASP^+ binding, hSERT E493N. The conditions noted are these: S2 site mutant, read-out: SYR IC50 for Binding.

Assay [3] has as its system BDNF, PSD-95, GluA1, and vGluT1. As to the kind of experiment: Immunoblot of synaptic proteins in hippocampus of CUMS mice. The conditions noted are these: same dosage as fluoxetine (10 mg/kg i.p.). The format is in vivo, mouse. The source says: Figure 8 SYR effects on the expression of c-Fos and synaptic proteins in the hippocampus. (A) Representative immunohistochemical images of c-Fos expression in the hippocampus with the indicated treatments. (B) Quantitative analysis for hippocampal c-Fos expression with various treatments. Protein expression level is expressed as a percentage of c-Fos fluorescence measured in the control group. Bars represent the mean ± SEM (n = 4). ** p < 0.01 compared with the control or CUMS group by one-way ANOVA followed by post hoc tests. (C) Representative immunoblots of the synaptic proteins BDNF, PSD-95, GluA1, and vGluT1 with various treatments. (D–G) Quantification of the expression of synaptic proteins BDNF (D), PSD-95 (E), GluA1 (F), and vGluT1 (G). The expression level is expressed as a percentage of the integrated density obtained from the control group. Bars represent the mean ± SEM (n = 4). * p < 0.05, ** p < 0.01 by one-way ANOVA followed by post hoc tests.
Synaptic proteins were extracted from mPFC or hippocampus tissues using RIPA lysis buffer, respectively. Expression of the indicated proteins under various treatments was then analyzed by immunoblotting, as previously reported. […] Quantification of immunoreactive protein bands was performed using Image J v1.53u, and GAPDH was used as an internal reference to normalize expression levels of those proteins, respectively.
In general terms: In western blotting, separated proteins are transferred to a membrane and probed.

For assay [4], the target named is T2, hSERT R564A (Homo sapiens, UniProt P31645, R564A).
T2 construct: forward and reverse primers were used to amplify a full-length hSERT; expressed in transfected cells; host or cells: HeLa
T2 sequence (P31645 whole entry R564A): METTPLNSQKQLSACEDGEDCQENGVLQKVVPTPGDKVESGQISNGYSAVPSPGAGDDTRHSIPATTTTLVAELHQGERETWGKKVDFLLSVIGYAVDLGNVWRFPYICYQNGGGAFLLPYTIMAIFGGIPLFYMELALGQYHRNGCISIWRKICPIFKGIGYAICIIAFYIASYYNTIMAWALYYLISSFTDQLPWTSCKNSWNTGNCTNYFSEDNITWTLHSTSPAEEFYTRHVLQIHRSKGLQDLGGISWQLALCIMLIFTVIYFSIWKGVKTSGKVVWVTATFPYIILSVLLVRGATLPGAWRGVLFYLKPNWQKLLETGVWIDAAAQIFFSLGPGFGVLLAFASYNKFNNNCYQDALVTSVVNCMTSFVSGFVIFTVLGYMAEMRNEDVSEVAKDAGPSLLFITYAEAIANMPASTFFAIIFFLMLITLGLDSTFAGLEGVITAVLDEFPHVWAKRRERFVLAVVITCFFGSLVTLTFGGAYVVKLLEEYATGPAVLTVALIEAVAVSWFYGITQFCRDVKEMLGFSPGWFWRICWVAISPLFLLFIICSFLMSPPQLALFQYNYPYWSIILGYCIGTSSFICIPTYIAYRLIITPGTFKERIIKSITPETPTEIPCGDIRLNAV
Nature of the assay: APP^+ uptake, hSERT R564A. The format is cell-based. The following applies: S2 site mutant, read-out: SYR IC50 for Transport.

Assay [5] concerns the target T3, hSERT G498T (Homo sapiens, UniProt P31645, G498T).
T3 construct: forward and reverse primers were used to amplify a full-length hSERT; expressed in transfected cells; host or cells: HeLa cells, transient, pcDNA3.1
Nature of the assay: ASP^+ binding, hSERT G498T. The conditions noted are these: S2 site mutant, read-out: SYR IC50 for Binding.

The target of assay [6] is T4, hSERT I327A (Homo sapiens, UniProt P31645, I327A).
T4 construct: forward and reverse primers were used to amplify a full-length hSERT; expressed in transfected cells; host or cells: HeLa cells, transient, pcDNA3.1
T4 sequence (P31645 whole entry I327A): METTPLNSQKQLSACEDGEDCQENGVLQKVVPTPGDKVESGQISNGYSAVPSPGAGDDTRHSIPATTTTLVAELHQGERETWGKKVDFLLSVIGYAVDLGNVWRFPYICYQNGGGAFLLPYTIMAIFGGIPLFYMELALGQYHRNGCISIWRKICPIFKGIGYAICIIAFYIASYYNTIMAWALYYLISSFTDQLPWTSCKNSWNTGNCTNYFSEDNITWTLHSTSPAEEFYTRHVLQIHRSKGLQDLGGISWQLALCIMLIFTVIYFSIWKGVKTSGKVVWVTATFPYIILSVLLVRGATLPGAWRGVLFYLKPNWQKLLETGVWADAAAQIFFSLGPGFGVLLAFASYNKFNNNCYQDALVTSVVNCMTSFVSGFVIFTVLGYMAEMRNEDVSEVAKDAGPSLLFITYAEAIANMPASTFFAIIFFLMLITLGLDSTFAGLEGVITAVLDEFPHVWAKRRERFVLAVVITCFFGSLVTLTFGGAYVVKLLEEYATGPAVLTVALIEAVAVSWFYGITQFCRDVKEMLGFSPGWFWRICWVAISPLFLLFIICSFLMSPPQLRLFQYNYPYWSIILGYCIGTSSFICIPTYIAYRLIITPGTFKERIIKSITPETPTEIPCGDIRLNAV
Nature of the assay: APP^+ uptake, hSERT I327A. The format is cell-based. The following applies: S2 site mutant, read-out: SYR IC50 for Transport.

Assay [7] relates to SERT Y107C/C109A. As to the kind of experiment: Cysteine accessibility, extracellular pathway: MTSET reactivity with Y107C/C109A. The format is cell-based. The conditions noted are these: 10 μM ligand, compared with the control (MTSET alone).
In assay [8] the target is T4, hSERT I327A. Nature of the assay: ASP^+ binding, hSERT I327A. The following applies: S2 site mutant, read-out: SYR IC50 for Binding.
The target of assay [9] is T5, hSERT T497A (Homo sapiens, UniProt P31645, T497A).
T5 construct: forward and reverse primers were used to amplify a full-length hSERT; expressed in transfected cells; host or cells: HeLa cells, transient, pcDNA3.1
T5 sequence (P31645 whole entry T497A): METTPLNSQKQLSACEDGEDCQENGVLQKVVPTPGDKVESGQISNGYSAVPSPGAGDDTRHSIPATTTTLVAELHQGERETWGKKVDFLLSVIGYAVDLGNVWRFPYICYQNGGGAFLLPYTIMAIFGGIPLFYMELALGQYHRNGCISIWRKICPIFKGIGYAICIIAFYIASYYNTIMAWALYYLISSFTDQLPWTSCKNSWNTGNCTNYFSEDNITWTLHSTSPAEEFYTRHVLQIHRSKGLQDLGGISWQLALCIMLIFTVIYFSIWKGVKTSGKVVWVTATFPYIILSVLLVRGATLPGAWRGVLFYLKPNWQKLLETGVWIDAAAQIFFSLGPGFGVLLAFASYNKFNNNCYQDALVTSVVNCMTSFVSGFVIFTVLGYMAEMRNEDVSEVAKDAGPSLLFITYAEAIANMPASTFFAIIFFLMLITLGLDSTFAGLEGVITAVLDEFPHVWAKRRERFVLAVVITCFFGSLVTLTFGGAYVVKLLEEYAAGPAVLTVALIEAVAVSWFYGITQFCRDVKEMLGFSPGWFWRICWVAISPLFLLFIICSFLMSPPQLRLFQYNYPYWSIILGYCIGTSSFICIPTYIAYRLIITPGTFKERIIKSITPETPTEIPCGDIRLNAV
As to the kind of experiment: APP^+ uptake, hSERT T497A. The format is cell-based. The following applies: S2 site mutant, read-out: SYR IC50 for Transport.

The target of assay [10] is T1, hSERT E493N. Nature of the assay: APP^+ uptake, hSERT E493N. The format is cell-based. The following applies: S2 site mutant, read-out: SYR IC50 for Transport.
Assay [11] addresses T6, hSERT L563A (Homo sapiens, UniProt P31645, L563A).
T6 construct: forward and reverse primers were used to amplify a full-length hSERT; expressed in transfected cells; host or cells: HeLa
As to the kind of experiment: ASP^+ binding, hSERT L563A. The conditions noted are these: S2 site mutant, read-out: SYR IC50 for Binding.

The target of assay [12] is T7, hSERT T583A (Homo sapiens, UniProt P31645, T583A).
T7 construct: forward and reverse primers were used to amplify a full-length hSERT; expressed in transfected cells; host or cells: HeLa
Nature of the assay: APP^+ uptake, hSERT T583A. The format is cell-based. The conditions noted are these: S2 site mutant, read-out: SYR IC50 for Transport.

Assay [13] addresses T8, hSERT F556A (Homo sapiens, UniProt P31645, F556A).
T8 construct: forward and reverse primers were used to amplify a full-length hSERT; expressed in transfected cells; host or cells: HeLa cells, transient, pcDNA3.1
As to the kind of experiment: APP^+ uptake, hSERT F556A. The format is cell-based. The conditions noted are these: S2 site mutant, read-out: SYR IC50 for Transport.

For assay [14], the target named is T9, hSERT P561G (Homo sapiens, UniProt P31645, P561G).
T9 construct: forward and reverse primers were used to amplify a full-length hSERT; expressed in transfected cells; host or cells: HeLa
Nature of the assay: ASP^+ binding, hSERT P561G. The conditions noted are these: S2 site mutant, read-out: SYR IC50 for Binding.

The target of assay [15] is T10, hSERT I172F (Homo sapiens, UniProt P31645, I172F).
T10 construct: forward and reverse primers were used to amplify a full-length hSERT; expressed in transfected cells; host or cells: HeLa
T10 sequence (P31645 whole entry I172F): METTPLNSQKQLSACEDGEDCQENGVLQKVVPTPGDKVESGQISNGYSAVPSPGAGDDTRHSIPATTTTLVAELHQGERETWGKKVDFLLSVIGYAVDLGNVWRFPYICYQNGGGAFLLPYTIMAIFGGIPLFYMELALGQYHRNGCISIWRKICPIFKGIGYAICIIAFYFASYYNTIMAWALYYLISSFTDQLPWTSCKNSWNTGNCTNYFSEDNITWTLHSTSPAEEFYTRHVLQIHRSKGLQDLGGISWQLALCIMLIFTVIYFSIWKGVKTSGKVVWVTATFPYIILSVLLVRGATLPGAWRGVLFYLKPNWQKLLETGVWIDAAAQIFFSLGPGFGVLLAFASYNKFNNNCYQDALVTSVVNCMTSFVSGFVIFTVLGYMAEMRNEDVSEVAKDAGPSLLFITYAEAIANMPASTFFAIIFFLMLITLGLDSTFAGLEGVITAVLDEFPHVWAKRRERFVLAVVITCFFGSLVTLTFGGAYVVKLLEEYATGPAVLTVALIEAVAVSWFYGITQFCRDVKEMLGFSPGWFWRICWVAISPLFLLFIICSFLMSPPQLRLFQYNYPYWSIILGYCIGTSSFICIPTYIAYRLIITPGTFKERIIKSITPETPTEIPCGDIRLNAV
As to the kind of experiment: ASP^+ binding, hSERT I172F. The following applies: S1 site mutant, read-out: SYR IC50 for Binding.

Assay [16] addresses T11, hSERT P499G (Homo sapiens, UniProt P31645, P499G).
T11 construct: forward and reverse primers were used to amplify a full-length hSERT; expressed in transfected cells; host or cells: HeLa cells, transient, pcDNA3.1
Nature of the assay: ASP^+ binding, hSERT P499G. The following applies: S2 site mutant, read-out: SYR IC50 for Binding.

T1 sequence (P31645 whole entry E493N): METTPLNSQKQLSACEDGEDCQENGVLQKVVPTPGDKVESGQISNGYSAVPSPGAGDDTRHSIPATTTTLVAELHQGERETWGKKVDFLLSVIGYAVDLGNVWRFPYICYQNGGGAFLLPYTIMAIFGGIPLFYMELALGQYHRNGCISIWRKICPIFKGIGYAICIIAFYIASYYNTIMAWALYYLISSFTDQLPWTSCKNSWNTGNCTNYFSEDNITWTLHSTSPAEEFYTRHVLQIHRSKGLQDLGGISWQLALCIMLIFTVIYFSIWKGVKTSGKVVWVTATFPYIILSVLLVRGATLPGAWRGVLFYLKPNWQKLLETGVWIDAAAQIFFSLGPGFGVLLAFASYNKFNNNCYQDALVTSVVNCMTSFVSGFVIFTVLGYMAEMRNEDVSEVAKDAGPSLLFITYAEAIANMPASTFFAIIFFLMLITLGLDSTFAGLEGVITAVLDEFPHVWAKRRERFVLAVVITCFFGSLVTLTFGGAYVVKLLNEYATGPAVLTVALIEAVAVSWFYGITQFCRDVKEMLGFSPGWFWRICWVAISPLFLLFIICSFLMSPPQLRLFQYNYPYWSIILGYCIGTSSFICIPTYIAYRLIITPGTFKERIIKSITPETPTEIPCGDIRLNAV
T3 sequence (P31645 whole entry G498T): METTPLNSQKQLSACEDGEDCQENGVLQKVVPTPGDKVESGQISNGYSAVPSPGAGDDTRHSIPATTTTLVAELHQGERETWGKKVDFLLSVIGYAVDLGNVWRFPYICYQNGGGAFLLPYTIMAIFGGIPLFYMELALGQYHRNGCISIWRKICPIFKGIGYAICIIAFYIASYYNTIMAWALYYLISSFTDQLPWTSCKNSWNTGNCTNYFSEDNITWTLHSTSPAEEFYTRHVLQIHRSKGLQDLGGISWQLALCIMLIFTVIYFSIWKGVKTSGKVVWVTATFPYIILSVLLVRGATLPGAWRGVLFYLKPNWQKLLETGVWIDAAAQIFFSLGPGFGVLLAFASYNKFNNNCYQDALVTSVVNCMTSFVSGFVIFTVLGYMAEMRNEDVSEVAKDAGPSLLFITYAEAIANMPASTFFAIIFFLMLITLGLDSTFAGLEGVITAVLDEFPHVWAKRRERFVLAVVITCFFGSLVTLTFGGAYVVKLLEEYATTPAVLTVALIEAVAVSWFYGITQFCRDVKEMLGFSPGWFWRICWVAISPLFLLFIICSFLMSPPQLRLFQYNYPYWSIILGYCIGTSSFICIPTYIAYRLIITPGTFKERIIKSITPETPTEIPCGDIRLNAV
T11 sequence (P31645 whole entry P499G): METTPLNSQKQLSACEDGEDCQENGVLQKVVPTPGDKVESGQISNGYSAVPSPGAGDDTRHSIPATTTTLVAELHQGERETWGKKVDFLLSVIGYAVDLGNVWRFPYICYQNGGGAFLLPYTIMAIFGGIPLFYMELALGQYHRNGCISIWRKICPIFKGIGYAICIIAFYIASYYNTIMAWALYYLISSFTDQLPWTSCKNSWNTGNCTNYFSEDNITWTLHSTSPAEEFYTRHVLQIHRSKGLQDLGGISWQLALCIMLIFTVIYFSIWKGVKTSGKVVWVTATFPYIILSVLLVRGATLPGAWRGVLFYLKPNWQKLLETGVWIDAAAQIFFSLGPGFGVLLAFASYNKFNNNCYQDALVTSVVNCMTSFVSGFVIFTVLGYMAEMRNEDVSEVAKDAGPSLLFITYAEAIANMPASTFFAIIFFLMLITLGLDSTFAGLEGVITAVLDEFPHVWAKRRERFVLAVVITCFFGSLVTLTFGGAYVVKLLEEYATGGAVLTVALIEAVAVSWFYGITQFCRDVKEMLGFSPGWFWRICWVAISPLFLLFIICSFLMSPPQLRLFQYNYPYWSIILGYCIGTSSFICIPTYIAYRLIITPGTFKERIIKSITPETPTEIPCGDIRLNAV
T8 sequence (P31645 whole entry F556A): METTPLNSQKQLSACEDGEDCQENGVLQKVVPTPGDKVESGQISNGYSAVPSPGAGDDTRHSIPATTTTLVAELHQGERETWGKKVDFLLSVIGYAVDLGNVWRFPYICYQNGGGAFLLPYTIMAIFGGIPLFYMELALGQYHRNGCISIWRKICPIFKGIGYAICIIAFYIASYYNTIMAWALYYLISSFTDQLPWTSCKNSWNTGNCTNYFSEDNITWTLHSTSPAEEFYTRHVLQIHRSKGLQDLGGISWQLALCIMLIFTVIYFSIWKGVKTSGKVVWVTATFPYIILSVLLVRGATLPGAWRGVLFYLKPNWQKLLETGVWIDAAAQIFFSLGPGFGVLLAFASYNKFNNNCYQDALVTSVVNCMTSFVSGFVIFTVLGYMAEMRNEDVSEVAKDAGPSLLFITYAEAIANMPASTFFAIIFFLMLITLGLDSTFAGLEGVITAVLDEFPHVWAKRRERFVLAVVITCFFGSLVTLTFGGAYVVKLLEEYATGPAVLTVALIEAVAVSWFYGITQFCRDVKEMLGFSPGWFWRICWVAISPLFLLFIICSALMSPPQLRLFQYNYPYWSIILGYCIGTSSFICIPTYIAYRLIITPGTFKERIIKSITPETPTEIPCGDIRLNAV

Consider `COc1cc([C@@H]2OC[C@@H]3[C@H]2CO[C@H]3c2cc(OC)c(O)c(OC)c2)cc(OC)c1O` [SYR, (-)-syringaresinol], for which the “SYR IC50 for APP^+ uptake relative to WT” value in assay [1] is on record as 3- to 10 fold. Also, the IC50 in assay [2] stood at 13.5 ± 1.3 µM; in assay [4], 14.6 ± 1.59 µM; in assay [5], 91 ± 6.29 µM; in [6], 19.5 ± 1.02 µM; in assay [8], 53.2 ± 7.01 µM; in [9], 10.6 ± 2.4 µM. In addition, the IC50 in [10] came out at 9.16 ± 0.34 µM; in assay [11] it was 39 ± 0.92 µM; in [12], 8.68 ± 1.4 µM; in assay [13] it was 7.39 ± 1.12 µM; in assay [14], 131 ± 5.72 µM; in [15] it was 1.51 ± 0.04 µM. In addition, the IC50 in assay [16] was 46.8 ± 2.35 µM. Moreover, in [3], the “CUMS-induced decrease in expression of synaptic proteins in the hippocampus” value is given as “effectively alleviate”. Also, the “rate constant of MTSET reactivity with Y107C/C109A” value in assay [7] is on record as “markedly increased”.
